According to patent publication US20220204577A1, “Synthetic Peptides With Affinity for the Interleukin-10 Receptor, Pharmaceutical Composition and Use Thereof as Immunomodulators for Treating Autoimmune, Inflammatory or Allergic Diseases” (Universidade Federal de Uberlândia, priority 2019, published 2022):
Positions of bridges follow the written chain, without caps; N, C: chain ends. No end group written: not given here.

Assays:
Format in all cases: cell-based
TLR4 signaling pathway = TLR4 signaling pathway (SEAP) in HEK cells, LPS pre-treatment then peptides; conditions: LPS then peptide, 12 hours
Description: HEK cells were used to investigate the ability of the peptides to reduce activation of the TLR4 signaling pathway after 12 hours of treatment.
In the assay shown in FIG. 7A, the cells were treated with peptides for 1 hour, then LPS (100 ng/ml) was added. SEAP production was measured after 12 hours of treatment. In the assay shown in FIG. 7B, the cells were treated with LPS (100 ng/ml) for 1 hour, then the peptides were added. SEAP production was measured after 12 hours of treatment. LPS (100 ng/mL) was used as positive control and IL-10 (0.4 ng/mL) as negative control. * P<0.05; ** P<0.005; *** P<0.0005.

cell line J774 = assay: Cytokines production after treatment of cell line J774; design: levels of MCP-1: dose or concentration left out as unconfirmed
Description: After 24 hours of treatment, the produced amounts of IL-6, MCP-1, and TNF-α were measured. […] In contrast, when cells were treated with a composition of Pep 1 followed by incubation with LPS (1 mg/ml) for 24 hours to induce an inflammatory response, the peptide was able to decrease the production of IL-6, MCP-1, and TNF-α.
Each decrease was significant compared to cells treated with LPS alone (positive control). * P<0.05; ** P<0.005; *** P<0.0005

[1] = system: Dendritic cells from mice bone marrow; assay: Co-stimulatory molecules on bone marrow dendritic cells; conditions: CD11c+ dendritic cells, 24 hours
Description: Dendritic cells from mice bone marrow were isolated to analyze the effect of synthesized peptides Pep 1, Pep 2, Pep 3, and Pep 4 at two concentrations, 1 μM, and 10 μM, on reducing cell activation. […] In the assays, CD11c+CD86 cells (FIG. 8A) and CD11c+CD40+ cells (FIG. 8B) were used after 24 hours of treatment. LPS (100 ng/mL) was used as a positive control. * P<0.05; ** P<0.005.

[2] = system: T cells from allergic patients; assay: Proliferation of T cells from allergic patients; conditions: 10 μM; 24 hours; Bet v 1 positive control
Description: To confirm the ability of the synthesized peptides to decrease dendritic cell activation, a composition containing Pep 1 at a concentration of 10 μM was chosen and the proliferation of T cells from allergic patients was measured after 24 hours of treatment. […] Cells were treated with Bet v 1 as a positive control, and an irrelevant peptide (IR) was used as a negative control.

“Pep 1: synthetic peptide with affinity to the Interleukin-10 receptor, SEQ ID No 01, with disulfide bridges (HACSAVIKSSCGGGS; disulfide 3-11 (inferred))” was tested, and the “activation of the TLR4 pathway” value (TLR4 signaling pathway; 0.001 μM) was “activation of the TLR4 pathway was more significantly reduced”, the “activation of the TLR4 pathway” value (TLR4 signaling pathway; 0.005 μM) was “activation of the TLR4 pathway was more significantly reduced” and the “activation of the TLR4 pathway” value (TLR4 signaling pathway; 0.01 μM) was “activation of the TLR4 pathway was more significantly reduced”. For the same substance, the “activation of the TLR4 pathway” value (TLR4 signaling pathway; 0.05 μM) was “activation of the TLR4 pathway was more significantly reduced”, the “activation of the TLR4 pathway” value (TLR4 signaling pathway; 0.1 μM) was “activation of the TLR4 pathway was more significantly reduced” and the “IL-10, IFN-γ, or IL12p70 production” value (cell line J774; 24 hours of treatment (data not shown)) was “No interference”. The “levels of IL-6” value (cell line J774; peptide then LPS 24 hours, 1 μM and 10 μM printed beside IL-6, versus LPS alone) was “significantly reduced”, the “levels of TNF-α” value (cell line J774; peptide then LPS 24 hours, 1 μM, 10 μM and 100 μM, versus LPS alone) was “significantly reduced” and the “levels of MCP-1” value (cell line J774; peptide then LPS 24 hours, versus LPS alone) was “significantly reduced”. The “cytokine response to peptide alone” value (cell line J774; without LPS stimulation (data not shown)) was “unable to elicit any response”, the “expression of CD86+” value ([1]; 1 μM) was “decreased the expression of CD86+” and the “expression of CD86+” value ([1]; 10 μM) was “decreased the expression of CD86+”. For the same substance, the T cell proliferation [2] was “decreased T cell proliferation”.
